The values below come from patent US20200270237A1 (priority 2017, published 2020).

The structures appear in SMILES notation.

One experiment deals with Human α2δ-1 Subunit of Cav2.2 Calcium Channel (Homo sapiens, UniProt P54289). The experiment is described as follows: biochemical.
Sequence of Human α2δ-1 Subunit of Cav2.2 Calcium Channel (P54289 25-1103): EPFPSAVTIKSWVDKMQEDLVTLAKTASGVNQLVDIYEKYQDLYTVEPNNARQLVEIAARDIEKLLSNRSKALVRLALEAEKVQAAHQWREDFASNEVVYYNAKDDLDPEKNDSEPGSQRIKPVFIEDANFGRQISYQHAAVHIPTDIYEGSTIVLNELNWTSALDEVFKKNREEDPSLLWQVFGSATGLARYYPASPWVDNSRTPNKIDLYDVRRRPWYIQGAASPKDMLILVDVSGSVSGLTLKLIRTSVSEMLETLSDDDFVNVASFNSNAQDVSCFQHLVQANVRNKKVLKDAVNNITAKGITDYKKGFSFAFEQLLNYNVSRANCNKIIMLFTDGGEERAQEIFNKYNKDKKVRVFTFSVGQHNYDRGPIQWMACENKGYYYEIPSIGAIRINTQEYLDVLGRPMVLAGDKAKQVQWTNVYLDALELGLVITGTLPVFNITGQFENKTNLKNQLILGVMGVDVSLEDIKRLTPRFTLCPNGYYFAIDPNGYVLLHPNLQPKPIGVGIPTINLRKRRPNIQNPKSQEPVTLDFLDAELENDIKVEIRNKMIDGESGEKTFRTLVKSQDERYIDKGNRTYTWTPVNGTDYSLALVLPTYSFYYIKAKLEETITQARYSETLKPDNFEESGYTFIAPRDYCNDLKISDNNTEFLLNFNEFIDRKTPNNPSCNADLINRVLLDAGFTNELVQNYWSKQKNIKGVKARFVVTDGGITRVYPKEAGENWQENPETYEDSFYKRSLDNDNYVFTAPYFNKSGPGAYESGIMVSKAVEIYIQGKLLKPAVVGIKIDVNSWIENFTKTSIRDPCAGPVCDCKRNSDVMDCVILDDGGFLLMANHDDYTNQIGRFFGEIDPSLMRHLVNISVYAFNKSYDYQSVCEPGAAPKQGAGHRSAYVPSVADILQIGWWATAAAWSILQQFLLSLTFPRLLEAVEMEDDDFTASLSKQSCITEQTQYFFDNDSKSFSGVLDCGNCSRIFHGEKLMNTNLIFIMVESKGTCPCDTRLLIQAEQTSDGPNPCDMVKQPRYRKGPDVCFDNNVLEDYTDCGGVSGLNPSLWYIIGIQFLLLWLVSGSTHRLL
Details: not given
It counts as binding.
Take `CNCC[C@@H](Oc1cccc(CN2CCC(c3cccc(O)c3)(N(C)C)CC2)c1)c1cccs1` [Example 17, (R)-3-(4-(dimethylamino)-1-(3-(3-(methylamino)-1-(thiophen-2-yl)propoxy)benzyl)piperidin-4-yl)phenol]: the Ki lay in the range of 100 to 500 nM.
The same measure, in the same setting: in the case of `CNCC[C@H](Oc1cccc(CN2CCC(c3ccccc3)(N(C)C)CC2)c1)c1cccs1` [Example 15, (S)-N,N-dimethyl-1-(3-(3-(methylamino)-1-(thiophen-2-yl)propoxy)benzyl)-4-phenylpiperidin-4-amine] it was 500 to 3000 nM; in that of `CNCCC(Oc1ccc(CN2CCC(c3ccccc3)(N(C)C)CC2)cc1)c1cccs1` (centres unmarked) [Example 51, N,N-dimethyl-1-(4-(3-(methylamino)-1-(thiophen-2-yl)propoxy)benzyl)-4-phenylpiperidin-4-amine], above 3000 nM; in that of `CNCCC(Oc1ccc(CCN2CCC(c3ccccc3)(N(C)C)CC2)cc1)c1cccs1` (centres unmarked) [Example 57, N,N-dimethyl-1-(4-(3-(methylamino)-1-(thiophen-2-yl)propoxy)phenethyl)-4-phenylpiperidin-4-amine], above 3000 nM.
On the same count and under the same terms, in the case of `CNCCC(Oc1cccc(CN2CCC(c3cccc(O)c3)(N(C)C)CC2)c1)c1cccs1` (centres unmarked) [Example 5, 3-(4-(Dimethylamino)-1-(3-(3-(methylamino)-1-(thiophen-2-yl)propoxy)benzyl)piperidin-4-yl)phenol] it was 100 to 500 nM; in that of `CNCC[C@H](Oc1cccc(CN2CCC(c3cccc(O)c3)(N(C)C)CC2)c1)c1cccs1` [Example 14, (S)-3-(4-(dimethylamino)-1-(3-(3-(methylamino)-1-(thiophen-2-yl)propoxy)benzyl)piperidin-4-yl)phenol], 100 to 500 nM.
Same read-out and setting: in the case of `CNCC[C@H](OCc1cccc(CN2CCC(c3cccc(O)c3)(N(C)C)CC2)c1)c1cccs1` [Example 23, (S)-3-(4-(dimethylamino)-1-(3-((3-(methylamino)-1-(thiophen-2-yl)propoxy)methyl)benzyl)piperidin-4-yl)phenol] it was above 3000 nM.

Staying with this experiment, now noted: Table 1; human α2δ-1 enriched membranes, 15 nM [3H]-Gabapentin; read-out: Ki (nM) alpha2delta Hum.
As for `CNCCC(Oc1cccc(N2CCC(c3ccccc3)(N(C)C)CC2)c1)c1cccs1` (centres unmarked) [Example 43, N,N-dimethyl-1-(3-(3-(methylamino)-1-(thiophen-2-yl)propoxy)phenyl)-4-phenylpiperidin-4-amine], the Ki was 500 to 3000 nM.
On the same count and under the same terms, in the case of `CNCC[C@@H](OCc1cccc(CN2CCC(c3ccccc3)(N(C)C)CC2)c1)c1cccs1` [Example 22, (R)-N,N-dimethyl-1-(3-((3-(methylamino)-1-(thiophen-2-yl)propoxy)methyl)benzyl)-4-phenylpiperidin-4-amine] it was 500 to 3000 nM; in that of `CNCCC(OCc1cccc(CN2CCC(c3ccccc3)(N(C)C)CC2)c1)c1cccs1` (centres unmarked) [Example 20, N,N-dimethyl-1-(3-((3-(methylamino)-1-(thiophen-2-yl)propoxy)methyl)benzyl)-4-phenylpiperidin-4-amine], 500 to 3000 nM.

The experiment is the same for the next values; noted with them: Table 2 (dual compounds); human α2δ-1 enriched membranes, 15 nM [3H]-Gabapentin; read-out: Ki (nM) alpha2delta Hum.
Take `CNCCC(Oc1cccc(N2CCC(c3ccccc3)(N(C)C)CC2)c1)c1cccs1` (centres unmarked) [Example 43, N,N-dimethyl-1-(3-(3-(methylamino)-1-(thiophen-2-yl)propoxy)phenyl)-4-phenylpiperidin-4-amine]: the Ki is 500 to 3000 nM.
On the same count and under the same terms, then `CNCC[C@@H](OCc1cccc(CN2CCC(c3ccccc3)(N(C)C)CC2)c1)c1cccs1` [Example 22, (R)-N,N-dimethyl-1-(3-((3-(methylamino)-1-(thiophen-2-yl)propoxy)methyl)benzyl)-4-phenylpiperidin-4-amine], with 500 to 3000 nM.
On the same count and under the same terms, then `CNCCC(OCc1cccc(CN2CCC(c3ccccc3)(N(C)C)CC2)c1)c1cccs1` (centres unmarked) [Example 20, N,N-dimethyl-1-(3-((3-(methylamino)-1-(thiophen-2-yl)propoxy)methyl)benzyl)-4-phenylpiperidin-4-amine], with 500 to 3000 nM.

The same experiment, now with this note: read-out: Ki (nM) alpha2delta Hum.
Turning to `CNCCC(Oc1ccc(CN2CCN(C)CC2)cc1)c1cccs1` (centres unmarked) [Example 52, N-methyl-3-(4-((4-methylpiperazin-1-yl)methyl)phenoxy)-3-(thiophen-2-yl)propan-1-amine], the Ki is above 3000 nM.
The same measure, in the same setting: then `CNCCC(Oc1cccc(C(=O)N2CCCCC2)c1)c1ccccc1` (centres unmarked) [Example 8, (3-(3-(Methylamino)-1-phenylpropoxy)phenyl)(piperidin-1-yl)methanone], with above 3000 nM; and `CNCCC(Oc1cccc(N2CCN(C)CC2)c1)c1cccs1` (centres unmarked) [Example 37, N-methyl-3-(3-(4-methylpiperazin-1-yl)phenoxy)-3-(thiophen-2-yl)propan-1-amine], with 500 to 3000 nM; and `CNCCC(Oc1cccc(CN2C[C@@H](C)N[C@@H](C)C2)c1)c1cccs1` (some centres unmarked) [Example 1, 3-(3-((3,5-Dimethylpiperazin-1-yl)methyl)phenoxy)-N-methyl-3-(thiophen-2-yl)propan-1-amine], with 500 to 3000 nM.
Same read-out and setting: in the case of `CC[C@@]1(N2CCN(Cc3cccc(CO[C@H](CCNC)c4ccccc4)c3)CC2)CCOC(C)(C)C1` [Example 30, (R)-3-((3-((4-((R)-4-ethyl-2,2-dimethyltetrahydro-2H-pyran-4-yl)piperazin-1-yl)methyl)benzyl)oxy)-N-methyl-3-phenylpropan-1-amine] it was above 3000 nM; in that of `CNCCC(Oc1cccc(N2CCCCC2=O)c1)c1cccs1` (centres unmarked) [Example 34, 1-(3-(3-(Methylamino)-1-(thiophen-2-yl)propoxy)phenyl)piperidin-2-one], above 3000 nM; in that of `CNCCC(Oc1cccc(N2CCNCC2)c1)c1cccs1` (centres unmarked) [Example 42, N-methyl-3-(3-(piperazin-1-yl)phenoxy)-3-(thiophen-2-yl)propan-1-amine], 500 to 3000 nM.
Turning to `CNCCC(OCc1cccc(N2CCCCC2=O)c1)c1ccccc1` (centres unmarked) [Example 38, 1-(3-((3-(Methylamino)-1-phenylpropoxy)methyl)phenyl)piperidin-2-one], the Ki was in the range of 500 to 3000 nM.
Turning to `CNCCC(Oc1cccc(CN2CCNCC2)c1)c1cccs1` (centres unmarked) [Example 6, N-methyl-3-(3-(piperazin-1-ylmethyl)phenoxy)-3-(thiophen-2-yl)propan-1-amine], the Ki was in the range of 500 to 3000 nM.
The same measure, in the same setting: in the case of `CNCCC(Oc1cccc(C(=O)N2CCOCC2)c1)c1ccccc1` (centres unmarked) [Example 10, (3-(3-(Methylamino)-1-phenylpropoxy)phenyl)(morpholino)methanone] it was above 3000 nM.
As to `CNCCC(OCc1ccc(N2CCC(c3ccccc3)(N(C)C)CC2)cc1)c1cccs1` (centres unmarked) [Example 49, N,N-dimethyl-1-(4-((3-(methylamino)-1-(thiophen-2-yl)propoxy)methyl)phenyl)-4-phenylpiperidin-4-amine], the Ki was above 3000 nM.
The same measure, in the same setting: then `CNCCC(Oc1cccc(-n2nc(C)cc2C)c1)c1ccccc1` (centres unmarked) [Example 13], with above 3000 nM; and `CNCCC(Oc1ccc(C(=O)N2CCC(c3ccccc3)(N(C)C)CC2)cc1)c1cccs1` (centres unmarked) [Example 56, (4-(Dimethylamino)-4-phenylpiperidin-1-yl)(4-(3-(methylamino)-1-(thiophen-2-yl)propoxy)phenyl)methanone], with above 3000 nM; and `CNCCC(Oc1cccc(C(=O)N2CCN(C)CC2)c1)c1ccccc1` (centres unmarked) [Example 9, (3-(3-(Methylamino)-1-phenylpropoxy)phenyl)(4-methylpiperazin-1-yl)methanone], with above 3000 nM.
The same measure, in the same setting: then `CNCC[C@H](Oc1cccc(CN2CCN([C@]3(C(=O)c4ccccn4)CCOC(C)(C)C3)CC2)c1)c1cccs1` [Example 18, ((R)-2,2-dimethyl-4-(4-(3-((S)-3-(methylamino)-1-(thiophen-2-yl)propoxy)benzyl)piperazin-1-yl)tetrahyrdro-2H-pyran-4-yl)(pyridin-2-yl)methanone], with above 3000 nM; and `CNCC[C@@H](OCc1cccc(CN2CCN([C@]3(C(=O)c4ccccn4)CCOC(C)(C)C3)CC2)c1)c1ccccc1` [Example 29, ((R)-2,2-dimethyl-4-(4-(3-(((R)-3-(methylamino)-1-phenylpropoxy)methyl)benzyl)piperazin-1-yl)tetrahydro-2H-pyran-4-yl)(pyridin-2-yl)methanone], with 500 to 3000 nM.
